Reference: patent US11987555B2, “Malassezin and analogs thereof as skin brightening agents” (Versicolor Technologies, LLC, priority 2016, dated 2024)
Like-named read-outs stand apart in the source and are kept apart here.

Legend:
MeWo cells [1] = experiment: Cell morphology after treatment (micrographs); type: cell-based; conditions: 100 μM of test compound, 6 hours
Procedure: FIGS. 5A-5K are micrographs showing MeWo cell morphology after 6 hours of treatment with various concentrations of CV-8684, CV-8685, CV-8688, DMSO, and staurosporine.
(§1) Typical cell morphology after various treatments is shown in FIGS. 5A-5K, 6A-6K, 7A-7K, 8A-8K, 9A-9K, 10A-10K, 11A-11K, and 12A-12K.

WM115 cells [2] = experiment: Cell morphology after treatment (micrographs); type: cell-based; conditions: 100 μM of test compound, 6 hours
Procedure: FIGS. 9A-9K are micrographs showing WM115 cell morphology after 6 hours of treatment with various concentrations of CV-8684, CV-8685, CV-8688, DMSO, and staurosporine.
as §1

MeWo cells [3] = experiment: Additional annexin V assay (3 doses, 6-72 hours); type: cell-based; conditions: 6 hours, doses 100, 10, 1 μM
Procedure: (§2) To further investigate the impact of test compounds on apoptosis, multiple readouts, covering different stages of apoptosis, were carried out on both MeWo and WM115 cells. Both cell types were treated with test compounds at 3 doses (100 μM, 10 μM, and 1 μM). Staurosporine was used as a positive control. […] The test compounds evaluated were CV-8684, CV-8685, and CV-8688.
(§3) Cell seeding was performed as discussed above with the following exceptions: the final cell density was 4,000 cells/well for 6-hour and 24-hour detections, whereas 2,000 cells/well were used for 48-hour and 72-hour detections. For each time point, 384-well clear bottom plates (Corning 3712) and solid white bottom plates (Corning 3570) were prepared. The plates were incubated as discussed above.
(§4) For preparation of the compound source plate, each test compound was dissolved in DMSO to 10 mM stock. Two additional concentrations were generations by 10-fold dilution to 1 mM and 0.1 mM. Staurosporine was used as positive control and 1% DMSO was employed as vehicle (negative) control. The compound source plate was spun at room temperature at 1,000 RPM for 1 minute and agitated using a plate shaker for 2 minutes.
(§5) 400 nL of test compound was transferred from the compound source plate to 384-well culture plates using Echo550 liquid handler. After 6, 24, 48, and 72 hours, the plates were removed from the incubator for detections.
(§6) Culture media was removed and cells were washed twice with PBS. 20 μL of pre-mixed annexin V-FITC working solution was added to each well. The cells were incubated at room temperature for 20 minutes. Plates were read using Acumen eX3 to count the number of FITC-positive cells.

WM115 cells [4] = experiment: Additional annexin V assay (3 doses, 6-72 hours); type: cell-based; conditions: 6 hours, doses 100, 10, 1 μM
Procedure: as §2, §3, §4, §5, §6

MeWo cells [5] = experiment: CellTiter-Glo cell viability assay; type: cell-based; conditions: doses 100, 10, 1 μM, 6-72 hours
Procedure: (§7) CellTiter-Glo® 2.0 assay was purchased from Promega.
(§8) CellTiter-Glo® reagents were thawed and equilibrated to room temperature before the experiment. 40 μL of CellTiter-Glo® reagent was then added to each well for detection (at 1:1 ratio to culture medium). The plates were then incubated at room temperature for 30 minutes and read using EnSpire (PerkinElmer) plate reader. The remaining activity was calculated according to the following formula: Remaining Activity (%)=100%×(Lumsample−Lumbkg)/(Lumvehicle−Lumbkg).

WM115 cells [6] = experiment: CellTiter-Glo cell viability assay; type: cell-based; conditions: doses 100, 10, 1 μM, 6-72 hours
Procedure: as §7, §8

MelanoDerm™ Skin Model = experiment: MelanoDerm assay, visual pigmentation; type: cell-based, human; conditions: day 7; 200 μM and 50 μM, topical every 48 hours
Procedure: FIGS. 16A-16K are photographs of MelanoDerm™ matrices at either day 0 or day 7 after exposure to no treatment (FIG. 16A), sterile deionized water (FIG. 16B), 1% kojic acid (FIG. 16C), 0.2% DMSO (FIG. 16D), 0.05% DMSO (FIG. 16E), 200 μM CV-8684 (FIG. 16F), 50 μM CV-8684 (FIG. 16G), 200 μM CV-8686 (FIG. 16H), 50 μM CV-8686 (FIG. 16I), 200 μM CV-8688 (FIG. 16J), and 50 μM CV-8688 (FIG. 16K).
The MelanoDerm™ Skin Model provided by MatTek Corporation (Ashland, MA) will be used in this study. The MelanoDerm™ tissue consists of normal, human-derived epidermal keratinocytes (NHEKs) and melanocytes (NHMs) which have been cultured to form a multilayered, highly differentiated model of the human epidermis. The NHMs within co-cultures undergo spontaneous melanogenesis leading to tissues of varying levels of pigmentation. The cultures are grown on cell culture inserts at the air-liquid interface, allowing for topical application of skin modulators. […]
At the end of the 7-day trial, the MelanoDerm™ tissues dosed with the negative or positive control, and with each test article will be photographed using a digital camera to aid in the visual assessment of the degree of pigmentation of the tissues at the end of the assay (Day 7). […] Then, the viability of the tissues will be determined by MTT reduction as indicated below.

[7] = biological target: T1, arylhydrocarbon receptor (AhR) (Homo sapiens, UniProt P35869); conditions: Wille et al., 2001; cited from earlier work
T1 sequence (P35869 11-848): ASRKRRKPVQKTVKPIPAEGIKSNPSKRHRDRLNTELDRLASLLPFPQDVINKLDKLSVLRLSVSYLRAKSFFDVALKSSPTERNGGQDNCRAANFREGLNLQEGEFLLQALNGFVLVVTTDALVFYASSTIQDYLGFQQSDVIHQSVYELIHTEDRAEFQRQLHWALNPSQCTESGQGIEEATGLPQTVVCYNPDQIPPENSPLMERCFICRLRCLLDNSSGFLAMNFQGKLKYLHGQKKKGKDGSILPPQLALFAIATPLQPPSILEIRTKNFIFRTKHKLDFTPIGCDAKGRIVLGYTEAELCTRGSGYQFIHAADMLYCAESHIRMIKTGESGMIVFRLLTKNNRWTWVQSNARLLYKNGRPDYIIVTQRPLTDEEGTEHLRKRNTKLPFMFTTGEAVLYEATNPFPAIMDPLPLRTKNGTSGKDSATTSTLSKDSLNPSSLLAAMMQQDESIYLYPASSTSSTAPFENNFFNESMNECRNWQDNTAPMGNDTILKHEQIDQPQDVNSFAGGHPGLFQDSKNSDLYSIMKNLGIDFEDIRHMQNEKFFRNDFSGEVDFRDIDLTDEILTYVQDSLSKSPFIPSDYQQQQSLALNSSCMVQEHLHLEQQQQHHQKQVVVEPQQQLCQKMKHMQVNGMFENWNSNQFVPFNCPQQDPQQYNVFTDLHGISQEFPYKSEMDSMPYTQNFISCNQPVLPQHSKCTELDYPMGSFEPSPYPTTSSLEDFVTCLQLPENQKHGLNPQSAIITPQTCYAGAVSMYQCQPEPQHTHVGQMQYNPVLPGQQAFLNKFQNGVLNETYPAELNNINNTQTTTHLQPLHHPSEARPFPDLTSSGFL

[8] = test system: primary human melanocytes; conditions: Krämer, et al., 2005; cited from earlier work
MeWo cells [9] = experiment: Lactate dehydrogenase (LDH) release assay; conditions: after 72-hour incubation
Procedure: (§16) The LDH assay quantitatively measures lactate dehydrogenase (“LDH”) released into the media from damaged cells as a biomarker for cytotoxicity and cytolysis.
(§17) CytoTox-ONE™ Homogenous Membrane Integrity Assay was purchased from Promega.
(§18) For the LDH release assay, plates were removed from the incubator and equilibrated at room temperature for 15 minutes. Plates were then centrifuged at 1,000 RPM for 1 minute. 20 μL of cell culture medium was transferred into a new 384-well black solid plate. Then, 20 μL of CytoTOX-ONE™was added into each well and incubated at room temperature for 10 minutes. Afterward, 10 μL of stop solution were added to each well, and the plates were agitated at 500 rpm for 1 minute. Plates were read using an excitation wavelength of 560 nm and an emission wavelength of 590 nm on EnSpire. The relative activity was calculated according to the following formula: Relative Activity (%)=100%×(Lumsample−Lumbkg)/(Lumvehicle−Lumbkg).

WM115 cells [10] = experiment: Lactate dehydrogenase (LDH) release assay; conditions: after 72-hour incubation
Procedure: as §16, §17, §18

MeWo cells [11] = experiment: Preliminary annexin V assay; type: cell-based; conditions: 6-hour treatment, preliminary screen
Excerpt: (§9) MeWo (ATCC® HTB-65™) and WM115 (ATCC® CRL-1675) cells were purchased from ATCC (Manassas, VA) and maintained in the following: for MeWo: DMEM supplemented with 10% FBS; for WM115: RPMI 1640 supplemented with 10% FBS (10% FBS, 1% stabilized antibiotic anti-mycotic solution).
(§10) In the […] stages of apoptosis, phosphatidylserine (“PS”) is translocated from the inner to the outer leaflet of the cell membrane, exposing PS to the extracellular environment, where it can be detected. Highly fluorescent annexin V conjugates provide quick and reliable detection methods for studying the externalization of PS.
(§11) During the first set of studies, both MeWo and WM115 cells were treated with test compounds at 10 doses starting from 100 μM with 3-fold dilution. Staurosporine was used as positive control. After 6-hour treatment, cell apoptosis was assessed using an annexin V assay. The test compounds evaluated were CV-8684, CV-8685, CV-8686, CV-8687, and CV-8688.
(§12) For cell seeding, cells were harvested and the cell number was determined using Countess® cell counter. Cells were then diluted with culture medium to the desired density. 40 μL of cell suspension per well was added to the required number of wells in a 384-well plate (Corning 3712—clear bottom plate). The final cell density was 6,000 cells/well. After plating, the plates were incubated at 37° C. and 5% CO2 overnight.
(§13) For preparation of compound source plate, each test compound was dissolved in DMSO to 10 mM stock. 3-fold serial dilution was performed using an EVO200™ liquid handler (TECAN) to generate ten concentrations of test compound. 0.1% DMSO was employed as vehicle (negative) control. The compound source plate was then spun at room temperature at 1,000 RPM for 1 minute and agitated using a plate shaker for 2 minutes.
(§14) For compound treatment, 40 nL of compound were transferred from the compound source plate to the 384-well culture plate using liquid handler Echo550 (LabCyte Inc.). After 6-hour incubation, the plates were removed from the incubator for detection.
(§15) For the preliminary annexin V assay, the plates were removed from the incubator and allowed to equilibrate at room temperature for 15 minutes. Culture media was then removed. 20 μL of pre-mixed annexin V-FITC and Hoechst33342 dye working solution were added to each well. The cells were then incubated at room temperature for 20 minutes. The plates were sealed and centrifuged for 1 minute at 1,000 RPM to remove bubbles. Afterward, the plate was read using an Acumen eX3 plate reader.

WM115 cells [12] = experiment: Preliminary annexin V assay; type: cell-based; conditions: 6-hour treatment, preliminary screen
Excerpt: as §9, §10, §11, §12, §13, §14, §15

[13] = CellTiter-Glo cell viability assay; type: cell-based; conditions: human, after 24-hour treatment, read-out: inhibition of cell viability
Procedure: as §7, §8

Row | LDH release (MeWo cells [9]) | LDH release (WM115 cells [10]) | EC50 (MeWo cells [11]; read-out: EC50 of annexin V staining) [nM] | Compound | cell morphology (MeWo cells [1]) | cell morphology (WM115 cells [2]) | apoptosis induction (annexin V) (MeWo cells [3]) | apoptosis induction (annexin V) (WM115 cells [4]) | inhibition of cell viability (MeWo cells [5]) | inhibition of cell viability (WM115 cells [6]) | pigmentation of MelanoDerm tissues (MelanoDerm™ Skin Model) | AhR agonist activity [7] | apoptosis induction [8] | annexin V staining (MeWo cells [11]) | annexin V staining (WM115 cells [12]) | cytotoxicity at 24 h ([13]; MeWo) [%] | cytotoxicity at 24 h ([13]; WM115) [%]
1 | did not induce significant release | did not induce significant release |  | O=Cc1c(Cc2c[nH]c3ccccc23)[nH]c2ccccc12 [CV-8684, 2-(1H-indol-3-ylmethyl)-1H-indole-3-carbaldehyde] | significantly affected | significantly affected | induced apoptosis at the highest concentration tested | induced apoptosis at the highest concentration tested | dose-dependent inhibition of cell viability | dose-dependent inhibition of cell viability | reduced pigmentation | known agonist | induces apoptosis |  |  |  | 
2 |  |  | 909 | CC(c1[nH]c2ccccc2c1C=O)c1c[nH]c2ccccc12 (centres unmarked) [CV-8688] | significantly affected | significantly affected | showed the induction effect within 6 hours of treatment in a dose-dependent manner | showed the induction effect within 6 hours of treatment in a dose-dependent manner | inhibited viability of both cell types in a dose-dependent manner | inhibited viability of both cell types in a dose-dependent manner | reduced pigmentation |  |  | markedly increased |  |  | 
3 |  |  |  | CN[C@@H]1C[C@H]2O[C@@](C)([C@@H]1OC)n1c3ccccc3c3c4c(c5c6ccccc6n2c5c31)C(=O)NC4 [Staurosporine, reference compound] | significantly affected | significantly affected |  |  |  |  |  |  |  | greatly increased | greatly increased | 100 | 100
